Experimental data published in patent publication US20250295649A1, “METHOD FOR PROMOTING ELONGATION OF LONG BONE DURING CHILDHOOD TO ADOLESCENCE BY GPER-1 ACTIVATION VARIANT” (Kaohsiung Medical University, priority 2024, published 2025).

Key:
epiphyseal chondrocytes = experiment: BrdU proliferation in ex vivo cultured epiphyseal cartilage of 4-day-old rats; type: cell-based; details: for proliferation of epiphyseal chondrocytes (BrdU): ex vivo rat epiphyseal cartilage
Description: After taking out the cultured epiphyseal cartilage from 4-day-old rats and culturing them ex vivo, the cartilage tissues are given GPER-1 agonists at concentrations of 0.1, 0.5, 1, and 2 μM to activate the GPER-1 of chondrocytes. Subsequently, the amount of proliferating cells in living cells is detected using Bromodeoxyuridine (5-bromo-2′-deoxyuridine, BrdU).

mice = experiment: Growth plate cartilage structure in mice, Safranin O staining; type: in vivo; details: subcutaneous injection from 2 weeks old
Description: From 2 weeks old, mice are administered GPER-1 agonists at concentrations of 10^−8 g/kg, 10^−6 g/kg, and 10^−4 g/kg through subcutaneous injection to activate GPER-1. Safranin O staining is employed to label cartilage tissue for the analysis of growth plate cartilage structure. The growth plate cartilage is categorized into the resting zone (RZ), proliferation zone (PZ), and hypertrophy zone (HZ).

Compound: CC(=O)c1ccc2c(c1)[C@H]1C=CC[C@H]1[C@@H](c1cc3c(cc1Br)OCO3)N2 (racemic) [GPER-1 agonist, (±)-1-[(3aR*,4S*,9bS*)-4-(6-Bromo-1,3-benzodioxol-5-yl)-3a,4,5,9b-tetrahydro-3H-cyclopenta[c]quinolin-8-yl]-ethenone]
- proliferation of rat chondrocytes (epiphyseal chondrocytes; concentrations ranging from 0.1 to 1 μM (summary statement)): can promote
- proliferation of epiphyseal chondrocytes (BrdU) (epiphyseal chondrocytes; 0.1 μM): significantly promote
- proliferation of epiphyseal chondrocytes (BrdU) (epiphyseal chondrocytes; 0.5 μM): significantly promote
- thickness of the proliferative zone of the growth plate (mice; 10^−4 g/kg): effectively promote
- thickness of the whole growth plate (mice; 10^−4 g/kg): effectively promote
- thickness of the proliferative zone of the growth plate (mice; 10^−6 g/kg): effectively promote
- thickness of the whole growth plate (mice; 10^−6 g/kg): effectively promote
